In patent publication US20230348454A1, “COMPOUNDS AS MODULATORS OF BIS-PHOSPHOGLYCERATE MUTASE FOR THE TREATMENT OF SICKLE CELL DISEASE” (Genzyme Corporation, priority 2020, published 2023) one finds EC50 data, which are given here for one compound.

The subject of the test is human red blood cells. Put plainly: Human cell-based assay (2,3-BPG, ATP by LC/MS). The settings on record: Erythrocyte, whole blood suspension, 37° C., 24 h, read-out: hRBC EC50. As to the method: The following materials were used in this assay: DMSO; Hemox buffer (30 mM TES, 135 mM NaCl, 5 mM KCl, pH 7.4); Inosine (100 mM in hemox buffer); Glucose (1 M in water); human red blood cells; LC/MS Optima grade methanol; LC/MS Optima grade water; and Incubation buffer (30 mM TES, 135 mM NaCl, 5 mM KCl, 50 mM inosine, 20 mM glucose pH 7.4).
Test compounds were loaded onto a 96-well plate (final concentration of DMSO was 1%). 10 mL whole blood was resuspended with an equivalent amount of 2× incubation buffer to make 25% het & 50% plasma solution. The final solution contains 10 mM glucose and 25 mM inosine. The blood suspension (100 uL) was added to the wells of the plate. The plate was covered with an adhesive foil cover and plastic lid, and incubated at 37° C. for 24 h. The samples were extracted through an SPE column and the metabolites (2,3-BPG, ATP) were analyzed by LC/MS.

`COC(=O)NCc1nc(C)c(-c2csc(-c3cc(F)c4[nH]nnc4c3F)n2)s1` [compound 16]: the concentration for a half-maximal effect (EC50) stood at 22.5 µM.
